The text below walks through data of patent publication US20110152313A1 (MACQUARIE UNIVERSITY, priority 2008, published 2011).

The structures appear in SMILES notation. Bounds are passed on as bounds.

Common to all, as to assay: kinase binding constant, 11-point dose response (T7 phage, qPCR)
Common to all, as to settings: >30 = no inhibition at highest concentration tested
For orientation: In qPCR the cycle at which signal appears reflects the starting amount.

The target in one assay is CAMKK2 (Homo sapiens, UniProt Q96RR4).
Another assay deals with T1, TYK2 (Homo sapiens, UniProt P29597).
T1 construct: TYK2(JH2domain-pseudokinase)

For another assay, the target named is T2, CDKL5 (Homo sapiens, UniProt O76039).
T2 sequence (O76039 1-960): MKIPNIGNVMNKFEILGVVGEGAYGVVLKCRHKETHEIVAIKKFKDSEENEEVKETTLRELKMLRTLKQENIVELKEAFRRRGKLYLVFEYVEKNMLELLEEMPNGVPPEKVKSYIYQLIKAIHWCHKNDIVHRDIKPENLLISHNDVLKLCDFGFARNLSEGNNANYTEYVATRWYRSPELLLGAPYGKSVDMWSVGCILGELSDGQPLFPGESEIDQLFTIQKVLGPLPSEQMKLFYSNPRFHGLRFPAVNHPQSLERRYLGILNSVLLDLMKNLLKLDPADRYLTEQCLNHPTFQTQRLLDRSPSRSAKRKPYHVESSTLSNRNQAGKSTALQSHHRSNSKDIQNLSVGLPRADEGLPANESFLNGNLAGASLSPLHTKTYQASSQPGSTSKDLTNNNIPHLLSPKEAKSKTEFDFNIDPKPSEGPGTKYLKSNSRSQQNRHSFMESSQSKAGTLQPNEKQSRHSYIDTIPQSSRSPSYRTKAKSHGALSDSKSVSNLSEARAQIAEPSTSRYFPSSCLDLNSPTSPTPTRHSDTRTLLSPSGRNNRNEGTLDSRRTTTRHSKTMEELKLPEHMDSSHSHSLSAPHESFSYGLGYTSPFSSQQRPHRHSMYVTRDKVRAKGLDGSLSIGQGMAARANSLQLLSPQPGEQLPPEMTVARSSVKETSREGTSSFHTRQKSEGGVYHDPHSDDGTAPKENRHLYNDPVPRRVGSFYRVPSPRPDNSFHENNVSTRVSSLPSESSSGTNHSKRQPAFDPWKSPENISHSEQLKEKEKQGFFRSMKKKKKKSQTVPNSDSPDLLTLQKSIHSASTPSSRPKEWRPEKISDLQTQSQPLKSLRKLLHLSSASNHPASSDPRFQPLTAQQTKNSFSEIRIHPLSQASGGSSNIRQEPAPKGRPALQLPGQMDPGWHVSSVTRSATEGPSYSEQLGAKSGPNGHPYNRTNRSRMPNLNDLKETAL

T1 sequence (P29597 whole entry): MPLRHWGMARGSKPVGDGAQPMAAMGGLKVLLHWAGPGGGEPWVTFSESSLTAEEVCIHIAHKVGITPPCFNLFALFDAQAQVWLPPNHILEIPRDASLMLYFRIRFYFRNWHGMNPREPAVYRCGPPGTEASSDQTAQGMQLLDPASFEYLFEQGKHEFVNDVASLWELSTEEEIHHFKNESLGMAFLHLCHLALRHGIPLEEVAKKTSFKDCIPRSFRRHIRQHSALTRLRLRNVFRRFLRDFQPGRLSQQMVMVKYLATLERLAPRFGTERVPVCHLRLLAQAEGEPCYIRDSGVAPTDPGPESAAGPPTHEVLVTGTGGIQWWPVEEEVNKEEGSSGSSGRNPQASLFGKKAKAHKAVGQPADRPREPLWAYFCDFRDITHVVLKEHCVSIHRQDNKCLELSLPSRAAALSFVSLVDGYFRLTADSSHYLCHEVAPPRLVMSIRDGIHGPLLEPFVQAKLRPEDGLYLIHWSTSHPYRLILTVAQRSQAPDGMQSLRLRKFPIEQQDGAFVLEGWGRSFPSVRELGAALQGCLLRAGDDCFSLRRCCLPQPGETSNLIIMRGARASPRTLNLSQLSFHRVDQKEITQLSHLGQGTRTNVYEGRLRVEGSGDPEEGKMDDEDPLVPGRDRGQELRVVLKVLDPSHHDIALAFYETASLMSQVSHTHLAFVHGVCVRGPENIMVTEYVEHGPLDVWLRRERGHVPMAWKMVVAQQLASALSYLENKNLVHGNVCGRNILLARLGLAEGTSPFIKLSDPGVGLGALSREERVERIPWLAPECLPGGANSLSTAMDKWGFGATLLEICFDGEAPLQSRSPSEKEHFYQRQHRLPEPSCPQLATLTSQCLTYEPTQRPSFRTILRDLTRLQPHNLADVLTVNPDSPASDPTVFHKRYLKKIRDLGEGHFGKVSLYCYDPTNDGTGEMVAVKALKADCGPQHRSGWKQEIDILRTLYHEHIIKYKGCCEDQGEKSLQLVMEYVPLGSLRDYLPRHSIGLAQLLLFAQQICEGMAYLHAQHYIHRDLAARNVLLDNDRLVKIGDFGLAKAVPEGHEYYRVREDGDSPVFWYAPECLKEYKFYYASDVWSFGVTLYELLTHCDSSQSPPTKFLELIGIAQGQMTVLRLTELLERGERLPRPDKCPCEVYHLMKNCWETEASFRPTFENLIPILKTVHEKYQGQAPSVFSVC
CAMKK2, sequence (Q96RR4 whole entry): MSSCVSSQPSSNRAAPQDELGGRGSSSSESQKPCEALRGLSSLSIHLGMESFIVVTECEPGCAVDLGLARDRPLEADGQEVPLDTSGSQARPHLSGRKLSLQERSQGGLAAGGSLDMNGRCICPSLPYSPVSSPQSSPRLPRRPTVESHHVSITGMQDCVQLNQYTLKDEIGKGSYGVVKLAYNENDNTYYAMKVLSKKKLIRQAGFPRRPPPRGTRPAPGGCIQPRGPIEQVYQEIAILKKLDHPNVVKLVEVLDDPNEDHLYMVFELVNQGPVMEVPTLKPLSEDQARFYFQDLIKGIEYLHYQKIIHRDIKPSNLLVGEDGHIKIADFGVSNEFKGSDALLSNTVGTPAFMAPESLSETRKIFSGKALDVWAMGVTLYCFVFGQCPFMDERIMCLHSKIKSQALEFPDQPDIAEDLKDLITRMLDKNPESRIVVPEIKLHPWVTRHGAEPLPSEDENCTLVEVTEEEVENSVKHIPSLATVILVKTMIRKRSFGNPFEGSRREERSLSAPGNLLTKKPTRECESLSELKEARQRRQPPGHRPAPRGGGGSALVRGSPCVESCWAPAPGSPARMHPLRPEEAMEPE

With `Nc1nc2c(-c3ccccn3)nccc2[nH]1` [drawing 35, 4-(pyrid-2-yl)-1H-imidazo[4,5-c]pyridin-2-amine], the Kd – broadly, the concentration at which binding is half-saturated – at CAMKK2 is more than 30 µM.

On to `Nc1nc2c(-c3cnc4ccccc4c3)nccc2[nH]1` [drawing 36, 4-(quinolin-3-yl)-1H-imidazo[4,5-c]pyridin-2-amine], for which the values for the Kd on TYK2 and on CDKL5 were 0.29 µM and more than 30 µM, respectively.
